Experimental data: patent US4918070A, “Cephalosporin derivatives and antibacterial agents” (Banyu Pharmaceutical Co., Ltd., priority 1987, dated 1990)
Values after ≈ are worked out from the molar mass of the structure shown. Like-named read-outs stand apart in the source and are kept apart here.

Tests used:
Format in all cases: cell-based
E. coli NIHJ JC2 = assay: in vitro antibacterial activity, agar plate dilution method (MIC); details: for MIC: Escherichia coli, read-out: Minimum Inhibitory Concentration (MIC)
Protocol: (§1) One platinum loopfull of each test microorganism incubated overnight in Mueller Hinton broth, was inoculated to Mueller Hinton agar (inoculum size: 10^6 CFU/ml). Such culture media containing various antibiotics in various concentrations were prepared. After incubation at 37° C. for 16 hours, the minimum inhibitory concentrations (MIC: μg/ml) were measured.

P. vulgaris HX-19 = assay: as above; details: for MIC: Proteus vulgaris, read-out: Minimum Inhibitory Concentration (MIC)
Protocol: as §1

K. pneumoniae PCI-602 = assay: as above; details: for MIC: Klebsiella pneumoniae, read-out: Minimum Inhibitory Concentration (MIC)
Protocol: as §1

S. marcescens IAM 1184 = assay: as above; details: for MIC: Serratia marcescens, read-out: Minimum Inhibitory Concentration (MIC)
Protocol: as §1

E. cloacae 963 = assay: as above; details: for MIC: read-out: Minimum Inhibitory Concentration (MIC)
Protocol: as §1

S. aureus 109P NIHJ-JCl = assay: in vitro antibacterial activity, agar plate dilution method (MIC), second part of Table 1; details: Staphylococcus aureus, 109PNIHJJCL, read-out: Minimum Inhibitory Concentration (MIC)
Protocol: as §1

S. aureus 209P NIHJ-JCl = assay: in vitro antibacterial activity, agar plate dilution method (MIC); details: for MIC: Staphylococcus aureus, read-out: Minimum Inhibitory Concentration (MIC)
Protocol: as §1

[1] = NIHJJC2, E. coli NIHJ JC2, 10^6 CFU/ml, MH agar, 37° C., 16 hours
[2] = HX19, P. vulgaris HX-19, 10^6 CFU/ml, MH agar, 37° C., 16 hours
[3] = PCI602, K. pneumoniae PCI-602, 10^6 CFU/ml, MH agar, 37° C., 16 hours
[4] = IAM1184, S. marcescens IAM 1184, 10^6 CFU/ml, MH agar, 37° C., 16 hours
[5] = Enterobacter cloacae, E. cloacae 963, 10^6 CFU/ml, MH agar, 37° C., 16 hours
[6] = S. aureus 109P NIHJ-JCl, 10^6 CFU/ml, MH agar, 37° C., 16 hours
[7] = Enterobacter cloacae, 963, 16 h
[8] = S. aureus 209P NIHJ-JCl, 10^6 CFU/ml, MH agar, 37° C., 16 hours

Row | MIC (E. coli NIHJ JC2; [1]) | MIC (P. vulgaris HX-19; [2]) | MIC (K. pneumoniae PCI-602; [3]) | MIC (S. marcescens IAM 1184; [4]) | MIC (E. cloacae 963; [5]) | SMILES | MIC (E. coli NIHJ JC2; NIHJJC2, 16 h) | MIC (S. aureus 209P NIHJ-JCl; 209P, 16 h) | MIC (K. pneumoniae PCI-602; PCI602, 16 h) | MIC (S. marcescens IAM 1184; IAM1184, 16 h) | other results
1 | 0.039 µg/mL | 0.39 µg/mL | 0.025 µg/mL | 0.1 µg/mL | 0.039 µg/mL | C[n+]1ccc(COC2=C(C(=O)[O-])N3C(=O)[C@@H](NC(=O)/C(=N\OC(C(=O)O)c4ccc(O)c(O)c4)c4csc(N)n4)[C@H]3SC2)cc1 (single isomer, unassigned) [Example 38, Sodium 7β-[2-(2-aminothiazol-4-yl)-(Z)-2-(α-carboxylato-3,4-dihydroxybenzyloxyimino)acetamido]-3-(1-methyl-4-pyridiniomethoxy)-3-cephem-4-carboxylate (diastereisomer A)] |  |  |  |  | MIC (S. aureus 109P NIHJ-JCl; [6]): 0.039 µg/mL
2 |  |  |  |  |  | CO/N=C(\C(=O)N[C@@H]1C(=O)N2C(C(=O)[O-])=C(OCc3ccncc3)CS[C@H]12)c1csc(N)n1.[Na+] [Example 1, Sodium 7β-[2-(2-aminothiazol-4-yl)-(Z)-2-methoxyiminoacetamido]-3-(4-pyridylmethoxy)-3-cephem-4-carboxylate] | 0.2 µg/mL | 0.78 µg/mL | < 0.006 µg/mL | 0.1 µg/mL | MIC (P. vulgaris HX-19; HX19, 16 h): 0.05 µg/mL; MIC (E. cloacae 963; [7]): 0.2 µg/mL
3 |  |  |  |  |  | CO/N=C(\C(=O)N[C@@H]1C(=O)N2C(C(=O)[O-])=C(OCc3ccc(C#N)cc3)CS[C@H]12)c1csc(N)n1.[Na+] [Example 12, Sodium 7β-[2-(2-aminothiazol-4-yl)-(Z)-2-methoxyiminoacetamido]-3-(4-cyanobenzyloxy)-3-cephem-4-carboxylate] | 0.78 µg/mL | 0.78 µg/mL | 0.0125 µg/mL | 0.39 µg/mL | MIC (P. vulgaris HX-19; HX19, 16 h): 0.025 µg/mL; MIC (E. cloacae 963; [7]): 0.78 µg/mL
4 | 0.39 µg/mL | 0.05 µg/mL | < 0.006 µg/mL | 0.1 µg/mL | 0.2 µg/mL | CO/N=C(\C(=O)N[C@@H]1C(=O)N2C(C(=O)O)=C(OCc3ccc(C(N)=O)cc3)CS[C@H]12)c1csc(N)n1 [Example 14, Sodium 7β-[2-(2-aminothiazol-4-yl)-(Z)-2-methoxyiminoacetamido]-3-(4-carbamoylbenzVloxy)-3-cephem-4-carboxylate] |  |  |  |  | MIC (S. aureus 209P NIHJ-JCl; [8]): 3.12 µg/mL
5 |  |  |  |  |  | CO/N=C(\C(=O)N[C@@H]1C(=O)N2C(C(=O)[O-])=C(OCc3nc(C)cs3)CS[C@H]12)c1csc(N)n1.[Na+] [Example 16, Sodium 7β-[2-(2-aminothiazol-4-yl)-(Z)-2-methoxyiminoacetamido]-3-(4-methylthiazol-2-ylmethoxy)-3-cephem-4-carboxylate] | 0.2 µg/mL | 3.12 µg/mL | < 0.006 µg/mL | 0.2 µg/mL | MIC (P. vulgaris HX-19; HX19, 16 h): < 0.006 µg/mL; MIC (E. cloacae 963; [7]): 0.2 µg/mL
6 |  |  |  |  |  | CO/N=C(\C(=O)N[C@@H]1C(=O)N2C(C(=O)[O-])=C(c3csnn3)CS[C@H]12)c1csc(N)n1.[Na+] [Example 18, Sodium 7δ-[2-(2-aminothiazol-4-yl)-(Z)-2-methoxyiminoacetamido]-3-(1,2,3-thiadiazol-4-yl)-3-cephem-4-carboxylate] |  |  |  |  | Minimum Inhibitory Concentration (MIC) (E. coli NIHJ JC2; E. coli NIHJ JC2, 10^6 CFU/ml, MH agar, 37° C., 16 hours): 0.390 µg/mL; Minimum Inhibitory Concentration (MIC) (P. vulgaris HX-19; P. vulgaris HX-19, 10^6 CFU/ml, MH agar, 37° C., 16 hours): 0.100 µg/mL; Minimum Inhibitory Concentration (MIC) (S. aureus 209P NIHJ-JCl; [8]): 3.12 µg/mL; Minimum Inhibitory Concentration (MIC) (K. pneumoniae PCI-602; K. pneumoniae PCI-602, 10^6 CFU/ml, MH agar, 37° C., 16 hours): 0.0125 µg/mL; Minimum Inhibitory Concentration (MIC) (S. marcescens IAM 1184; S. marcescens IAM 1184, 10^6 CFU/ml, MH agar, 37° C., 16 hours): 0.390 µg/mL; Minimum Inhibitory Concentration (MIC) (E. cloacae 963; E. cloacae 963, 10^6 CFU/ml, MH agar, 37° C., 16 hours): 0.390 µg/mL
7 |  |  |  |  |  | NC(=O)c1ccc(COC2=C(C(=O)[O-])N3C(=O)[C@@H](NC(=O)/C(=N\OCC(=O)[O-])c4csc(N)n4)[C@H]3SC2)cc1.[Na+].[Na+] [Example 22, Disodium 7β-[2-(2-aminothiazol-4-yl)-(Z)-2-carboxylatomethoxyiminoacetamido]-3-(4-carbamoylbenzyloxy)-3-cephem-4-carboxylate] | 0.05 µg/mL | 50 µg/mL | 0.025 µg/mL | 0.0125 µg/mL | MIC (P. vulgaris HX-19; HX19, 16 h): 0.025 µg/mL; MIC (E. cloacae 963; [7]): 0.1 µg/mL
8 | 0.1 µg/mL (≈ 0.198 µM) | 0.2 µg/mL (≈ 0.396 µM) | 0.025 µg/mL (≈ 0.0495 µM) | 0.05 µg/mL (≈ 0.0991 µM) | 0.1 µg/mL (≈ 0.198 µM) | CO/N=C(\C(=O)N[C@@H]1C(=O)N2C(C(=O)[O-])=C(OCc3cc[n+](C)cc3)CS[C@H]12)c1csc(N)n1 [Example 32, 7β-[2-(2-aminothiazol-4-yl)-(Z)-2-methoxyiminoacetamido]-3-(1-methyl-4-pyridiniomethoxy)-3-cephem-4-carboxylate] |  |  |  |  | MIC (S. aureus 109P NIHJ-JCl; [6]): 0.039 µg/mL (≈ 0.0773 µM)
9 | 0.39 µg/mL | 0.0125 µg/mL | 0.05 µg/mL | 0.1 µg/mL | 0.39 µg/mL | C[n+]1ccc(COC2=C(C(=O)[O-])N3C(=O)[C@@H](NC(=O)/C(=N\OCc4ccccc4CC(=O)O)c4csc(N)n4)[C@H]3SC2)cc1 [Example 40, Sodium 7β-[2-(2-aminothiazol-4-yl)-(Z)-2-(2-carboxylatomethylbenzyloxyimino)acetamido]-3-(1-methyl-4-pyridiniomethoxy)-3-cephem-4-carboxylate] |  |  |  |  | MIC (S. aureus 109P NIHJ-JCl; [6]): 1.56 µg/mL
10 | 0.39 µg/mL (≈ 0.773 µM) | 0.2 µg/mL (≈ 0.396 µM) | 0.05 µg/mL (≈ 0.0991 µM) | 0.2 µg/mL (≈ 0.396 µM) | 0.2 µg/mL (≈ 0.396 µM) | CO/N=C(\C(=O)N[C@@H]1C(=O)N2C(C(=O)[O-])=C(OCc3cccc[n+]3C)CS[C@H]12)c1csc(N)n1 [Example 44, 7β-[2-(2-aminothiazol-4-yl)-(Z)-2-methoxyiminoacetamido]-3-(1-methyl-2-pyridiniomethoxy)-3-cephem-4-carboxylate] |  |  |  |  | MIC (S. aureus 109P NIHJ-JCl; [6]): 0.2 µg/mL (≈ 0.396 µM)

Row | SMILES | MIC (E. coli NIHJ JC2; [1]) | MIC (P. vulgaris HX-19; [2]) | MIC (K. pneumoniae PCI-602; [3]) | MIC (S. marcescens IAM 1184; [4]) | MIC (E. cloacae 963; [5]) | MIC (E. coli NIHJ JC2; NIHJJC2, 16 h) | MIC (S. aureus 209P NIHJ-JCl; 209P, 16 h) | MIC (K. pneumoniae PCI-602; PCI602, 16 h) | MIC (S. marcescens IAM 1184; IAM1184, 16 h) | other results
11 | CC(C)(O/N=C(\C(=O)N[C@@H]1C(=O)N2C(C(=O)O)=C(OCc3ccncc3)CS[C@H]12)c1csc(N)n1)C(=O)O [Example 4, Disodium 7β-[2-(2-aminothiaxol-4-yl)-(Z)-2-(1-carboxylato-1-methylethoxyimino)acetamido]-3-(4-pyridylmethoxy)-3-cephem-4-carboxylate] | 0.39 µg/mL | 0.0125 µg/mL | 0.05 µg/mL |  | 0.039 µg/mL |  | 12.5 µg/mL |  | 0.025 µg/mL | 
12 | C[n+]1ccc(COC2=C(C(=O)[O-])N3C(=O)[C@@H](NC(=O)/C(=N\OC(C)(C)C(=O)O)c4csc(N)n4)[C@H]3SC2)cc1 [Example 36, Sodium 7β-[2-(2-aminothiazol-4-yl)-(Z)-2-(1-carboxylato-1-methylethoxyimino)acetamido]-3-(1-methy-4-pyridiniomethoxy)-3-cephem-4-carboxylate] | 0.05 µg/mL | 0.05 µg/mL | 0.0125 µg/mL | 0.025 µg/mL | 0.05 µg/mL |  |  |  |  | MIC (S. aureus 109P NIHJ-JCl; 16 h): 6.25 µg/mL
13 | C=C(O/N=C(\C(=O)N[C@@H]1C(=O)N2C(C(=O)[O-])=C(OCc3cc[n+](C)cc3)CS[C@H]12)c1csc(N)n1)C(=O)O [Example 37, Sodium 7β-[2-(2-aminothiazol-4-yl)-(Z)-2-(1-carboxylatovinyloxyimino)acetamido]-3-(1-methyl-4-pyridiniomethoxy)-3-cephem-4-carboxylate] |  | 0.025 µg/mL |  | < 0.006 µg/mL | 0.025 µg/mL | 0.025 µg/mL |  | < 0.006 µg/mL |  | MIC (S. aureus 109P NIHJ-JCl; 16 h): 1.56 µg/mL
14 | CCO/N=C(\C(=O)N[C@@H]1C(=O)N2C(C(=O)[O-])=C(OCc3cc[n+](CC(=O)O)cc3)CS[C@H]12)c1csc(N)n1 [Example 51, Sodium 7β-[2-(2-aminothiazol-4-yl)-(Z)-2-ethoxyiminoacetamido]-3-(1-carboxylatomethyl-4-pyridiniomethoxy)-3-cephem-4-carboxylate] | 0.2 µg/mL | 0.05 µg/mL | 0.025 µg/mL | 0.1 µg/mL | 0.1 µg/mL |  |  |  |  | MIC (S. aureus 109P NIHJ-JCl; 16 h): 3.12 µg/mL
